Like-named read-outs stand apart in the source and are kept apart here.
Tests used:
[1] = test system: mammalian thioredoxin reductase (TrxR); details: cited from earlier work
[2] = single oral dose of 100 mg to healthy volunteers; cited from earlier work
TrxR/Trx system = molecular target: T1, TrxR/Trx system (Homo sapiens, UniProt P10599); assay: TrxR/Trx NADPH oxidation assay; format: biochemical; details: increasing concentrations of test substance
T1 construct: purchased Sigma (Trx); American Diagnostica (bovine TrxR)
T1 sequence (P10599 1-105): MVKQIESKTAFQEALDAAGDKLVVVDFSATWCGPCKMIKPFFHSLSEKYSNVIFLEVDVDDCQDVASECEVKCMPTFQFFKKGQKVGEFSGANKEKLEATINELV
Text: (Note: error bars are small and may be obscured by the symbols). […] (Note: error bars were omitted but assays were run in quadruplicate with typical errors of 5-8% between individual replicates). […] Panel D: Initial velocity reaction rates corresponding to progress curves shown in Panel C. With time, Trx-mesna and Trx-GSH are converted back to apo-Trx by Trx reductase (see also, FIG. 69, Panel E).

bovine TrxR = molecular target: T2, bovine TrxR (Bos taurus, UniProt O62768); assay: TrxR NADPH oxidation assay without Trx (Reaction A); format: biochemical; details: TrxR alone + NADPH, no Trx
T2 construct: purchased American Diagnostica
T2 sequence (O62768 1-499): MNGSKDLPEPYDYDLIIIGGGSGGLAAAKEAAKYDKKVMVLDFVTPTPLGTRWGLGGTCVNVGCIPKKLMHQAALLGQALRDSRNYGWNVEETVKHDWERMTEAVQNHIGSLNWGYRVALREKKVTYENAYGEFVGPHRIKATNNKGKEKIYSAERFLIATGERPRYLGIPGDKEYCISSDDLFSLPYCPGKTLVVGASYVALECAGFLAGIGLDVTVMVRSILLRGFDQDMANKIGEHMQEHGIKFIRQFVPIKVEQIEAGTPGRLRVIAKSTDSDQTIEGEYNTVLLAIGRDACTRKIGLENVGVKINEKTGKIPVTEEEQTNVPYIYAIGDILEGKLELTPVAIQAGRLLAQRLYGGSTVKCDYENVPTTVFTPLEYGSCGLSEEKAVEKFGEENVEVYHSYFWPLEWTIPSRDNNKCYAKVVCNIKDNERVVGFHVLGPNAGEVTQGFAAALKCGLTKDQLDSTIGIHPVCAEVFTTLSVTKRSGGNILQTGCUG

T790M EGFR kinase = T790M EGFR kinase (Homo sapiens, UniProt P00533, T790M); assay: EGFR kinase assay (ADP-glo, polyGT substrate), T790M mutant; format: biochemical; details: for IC50: read-out: IC50, inhibition of T790M EGFR kinase; for effect on Erlotinib inhibition of T790M EGFR kinase activity: heteroconjugate in combination with Erlotinib, 10 μM and/or 100 μM ATP
[3] = molecular target: T3, glutathione reductase (GR) (Homo sapiens, UniProt P00390); details: cited from earlier work
T3 sequence (P00390 44-522): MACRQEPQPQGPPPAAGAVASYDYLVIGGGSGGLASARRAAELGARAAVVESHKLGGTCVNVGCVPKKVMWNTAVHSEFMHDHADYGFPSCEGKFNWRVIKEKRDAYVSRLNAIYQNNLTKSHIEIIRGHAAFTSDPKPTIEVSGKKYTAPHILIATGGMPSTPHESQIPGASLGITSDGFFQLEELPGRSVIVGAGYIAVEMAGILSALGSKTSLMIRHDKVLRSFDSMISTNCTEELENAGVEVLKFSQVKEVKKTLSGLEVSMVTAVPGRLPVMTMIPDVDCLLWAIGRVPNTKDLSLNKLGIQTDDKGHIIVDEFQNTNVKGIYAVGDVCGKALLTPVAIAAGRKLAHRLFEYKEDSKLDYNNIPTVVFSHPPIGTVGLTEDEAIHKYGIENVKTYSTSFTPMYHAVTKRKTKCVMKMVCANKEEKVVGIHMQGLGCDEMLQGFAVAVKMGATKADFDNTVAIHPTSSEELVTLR

[4] = test system: bovine brain microtubule protein (α-/β-tubulin); assay: Microtubule protein polymerization assay (OD350); format: biochemical; details: for protection against monoaquocisplatin-induced loss of microtubule protein polymerization: preincubated with monoaquocisplatin (36 μM), mesna or cysteine 200 μM; for effect on microtubule protein polymerization: sodium chloride 32 mM control
ErbB-2 = ErbB-2 (Homo sapiens, UniProt P04626); design: key: the “+” and “−” symbols signify the ability and inability to activate each of the ErbB receptors, respectively; the “+” and “−” symbols signify the ability and inability to activate each of the ErbB receptors, respectively; details: cited from earlier work
ErbB-4 = ErbB-4 (Homo sapiens, UniProt Q15303); design: key: the “+” and “−” symbols signify the ability and inability to activate each of the ErbB receptors, respectively; the “+” and “−” symbols signify the ability and inability to activate each of the ErbB receptors, respectively; details: cited from earlier work
ErbB-3 = ErbB-3 (Homo sapiens, UniProt P21860); design: key: the “+” and “−” symbols signify the ability and inability to activate each of the ErbB receptors, respectively; the “+” and “−” symbols signify the ability and inability to activate each of the ErbB receptors, respectively; details: cited from earlier work
ErbB-1 = ErbB-1 (Homo sapiens, UniProt P00533); details: cited from earlier work

Chain of ErbB-4 (Q15303 26-1308, species assumed): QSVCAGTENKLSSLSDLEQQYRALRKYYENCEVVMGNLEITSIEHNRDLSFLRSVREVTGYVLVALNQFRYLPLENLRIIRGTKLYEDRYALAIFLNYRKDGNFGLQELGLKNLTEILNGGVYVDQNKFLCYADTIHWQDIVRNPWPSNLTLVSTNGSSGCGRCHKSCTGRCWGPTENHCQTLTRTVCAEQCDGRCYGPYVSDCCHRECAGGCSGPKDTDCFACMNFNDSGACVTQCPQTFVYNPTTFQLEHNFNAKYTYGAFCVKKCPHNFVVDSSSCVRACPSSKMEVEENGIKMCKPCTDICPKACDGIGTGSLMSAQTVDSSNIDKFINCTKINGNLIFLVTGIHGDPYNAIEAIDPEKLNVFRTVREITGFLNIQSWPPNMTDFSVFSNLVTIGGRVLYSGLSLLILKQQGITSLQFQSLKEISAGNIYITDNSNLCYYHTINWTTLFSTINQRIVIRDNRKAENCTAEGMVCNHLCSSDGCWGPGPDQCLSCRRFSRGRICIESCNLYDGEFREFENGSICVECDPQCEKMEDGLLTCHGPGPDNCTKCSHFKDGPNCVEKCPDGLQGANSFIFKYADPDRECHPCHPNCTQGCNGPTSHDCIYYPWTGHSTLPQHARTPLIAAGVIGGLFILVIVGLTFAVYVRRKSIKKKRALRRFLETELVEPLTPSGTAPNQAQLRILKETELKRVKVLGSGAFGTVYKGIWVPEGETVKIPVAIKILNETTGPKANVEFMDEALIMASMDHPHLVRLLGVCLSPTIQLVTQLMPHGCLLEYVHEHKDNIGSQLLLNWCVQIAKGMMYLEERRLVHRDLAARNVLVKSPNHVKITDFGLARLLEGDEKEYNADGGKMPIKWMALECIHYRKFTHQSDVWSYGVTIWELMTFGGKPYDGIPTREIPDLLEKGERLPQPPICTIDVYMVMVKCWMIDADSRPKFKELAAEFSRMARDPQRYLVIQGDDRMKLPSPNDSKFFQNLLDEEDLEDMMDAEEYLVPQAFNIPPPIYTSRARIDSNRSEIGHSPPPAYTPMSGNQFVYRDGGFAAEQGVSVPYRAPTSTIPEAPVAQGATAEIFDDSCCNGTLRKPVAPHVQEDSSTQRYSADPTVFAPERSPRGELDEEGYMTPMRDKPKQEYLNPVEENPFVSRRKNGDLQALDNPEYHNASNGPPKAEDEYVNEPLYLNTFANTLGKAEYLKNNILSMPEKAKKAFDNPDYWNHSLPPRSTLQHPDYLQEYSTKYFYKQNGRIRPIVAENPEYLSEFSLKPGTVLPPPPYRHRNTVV

Molecule: CC1=C(/C=C/C(C)=C/C=C/C(C)=C\C(=O)O)C(C)(C)CCC1 [13-cis-retinoic acid]
- Inhibition of TrxR [1]: irreversible inhibition of TrxR

Molecule: C#Cc1cccc(Nc2ncnc3cc(OCCOC)c(OCCOC)cc23)c1 [Erlotinib, reference compound]
- Cmax [2]: 1390 ng/mL

Molecule: NC(CSSCCS(=O)(=O)O)C(=O)O (stereo not drawn) [MSSC, mesna-cysteine disulfide]
- NADPH oxidation by TrxR and Trx (TrxR/Trx system): increases
- NADPH Oxidation, Reaction A (bovine TrxR; disulfide 0.5 mM): 0.2 ± 0.03 nmol/min/mL

Molecule: NC(CSSCCS(=O)(=O)O)C(=O)NC(CCC(=O)O)C(=O)O (stereo not drawn) [MSSCE, mesna-cysteinyl glutamate disulfide]
- NADPH Oxidation, Reaction A (bovine TrxR; disulfide 0.5 mM): 0.3 ± 0.02 nmol/min/mL

Molecule: NC(CSSCCS(=O)(=O)O)C(=O)NCC(=O)O (stereo not drawn) [MSSCG, mesna-cysteinyl glycine disulfide]
- NADPH Oxidation, Reaction A (bovine TrxR; disulfide 0.5 mM): 0.2 ± 0.04 nmol/min/mL

Molecule: NC(CSSCCS(=O)(=O)O)C(=O)O (stereo not drawn) [Mesna-Cysteine]
- IC50 (T790M EGFR kinase; 10 μM ATP): 3.76 ± 0.26 mM
- IC50 (T790M EGFR kinase; 100 μM ATP): 3.03 ± 0.28 mM
- effect on Erlotinib inhibition of T790M EGFR kinase activity (T790M EGFR kinase): effectively potentiated

Molecule: NC(CSSCCS(=O)(=O)O)C(=O)NC(CCC(=O)O)C(=O)O (stereo not drawn) [Mesna-Cysteinylglutamate]
- IC50 (T790M EGFR kinase; 10 μM ATP): 1.09 ± 0.19 mM
- IC50 (T790M EGFR kinase; 100 μM ATP): 1.05 ± 0.08 mM
- effect on Erlotinib inhibition of T790M EGFR kinase activity (T790M EGFR kinase): effectively potentiated

Molecule: NC(CSSCCS(=O)(=O)O)C(=O)NCC(=O)O (stereo not drawn) [Mesna-Cysteinylglycine]
- IC50 (T790M EGFR kinase; 10 μM ATP): 0.51 ± 0.01 mM
- IC50 (T790M EGFR kinase; 100 μM ATP): 0.41 ± 0.05 mM
- effect on Erlotinib inhibition of T790M EGFR kinase activity (T790M EGFR kinase): effectively potentiated

Molecule: NC(CCC(=O)NC(CSSCCS(=O)(=O)O)C(=O)NCC(=O)O)C(=O)O (stereo not drawn) [Mesna-Glutathione]
- IC50 (T790M EGFR kinase; 10 μM ATP): 1.28 ± 0.29 mM
- IC50 (T790M EGFR kinase; 100 μM ATP): 1.17 ± 0.01 mM
- effect on Erlotinib inhibition of T790M EGFR kinase activity (T790M EGFR kinase): effectively potentiated

Molecule: CS(=O)(=O)OCCCCOS(C)(=O)=O [busulfan]
- Inhibition of TrxR [1]: irreversibly inhibited TrxR in a concentration- and time-dependent manner
- Inhibition of GR [3]: not GR

Molecule: N.N.O=C([O-])C1(C(=O)[O-])CCC1.[Pt+2] [carboplatin]
- Inhibition of TrxR [1]: could not inhibit either TrxR or GR
- Inhibition of GR [3]: could not inhibit either TrxR or GR

Molecule: O=NN(CCCl)C(=O)NCCCl [carmustine]
- Inhibition of TrxR [1]: can inhibit both GR and Trx
- Inhibition of GR [3]: can inhibit both GR and Trx

Molecule: O=C(O)CCCc1ccc(N(CCCl)CCCl)cc1 [chlorambucil]
- Inhibition of TrxR [1]: irreversibly inhibited TrxR in a concentration- and time-dependent manner
- Inhibition of GR [3]: not GR

Molecule: N.N.[Cl][Pt][Cl] [cisplatin]
- Inhibition of TrxR [1]: irreversibly inhibited TrxR
- Inhibition of GR [3]: not GR

Molecule: O=P1(N(CCCl)CCCl)NCCCO1 (stereo not drawn) [cyclophosphamide]
- Inhibition of TrxR [1]: irreversibly inhibited TrxR in a concentration- and time-dependent manner
- Inhibition of GR [3]: not GR

Molecule: N[C@@H](CS)C(=O)O [cysteine, reference compound]
- effect alone on microtubule protein polymerization ([4]; in the absence of monoaquocisplatin): neither mesna nor cysteine alone (in the absence of monoaquocisplatin) had any effect

Molecule: COc1cccc2c1C(=O)c1c(O)c3c(c(O)c1C2=O)C[C@@](O)(C(C)=O)C[C@@H]3O[C@H]1C[C@H](N)[C@H](O)[C@H](C)O1 [daunorubicin]
- Inhibition of TrxR [1]: not inhibitors of TrxR

Molecule: N[C@@H](CCC(=O)O)C(=O)O [glutamate, reference compound]
- protection against monoaquocisplatin-induced loss of microtubule protein polymerization [4]: not seen

Molecule: NC(=O)CC[C@H](N)C(=O)O [glutamine, reference compound]
- protection against monoaquocisplatin-induced loss of microtubule protein polymerization [4]: not seen

Molecule: O=P1(NCCCl)OCCCN1CCCl (stereo not drawn) [ifosfamide]
- Inhibition of TrxR [1]: inhibited TrxR

Molecule: N[C@@H](Cc1ccc(N(CCCl)CCCl)cc1)C(=O)O [melphalan]
- Inhibition of TrxR [1]: irreversibly inhibited TrxR in a concentration- and time-dependent manner
- Inhibition of GR [3]: not GR

Molecule: N.N.O.[Cl][Pt+] [monoaquocisplatin, reference compound]
- effect of extended exposure on microtubule protein polymerization ([4]; monoaquocisplatin 36 μM): loss of microtubule protein's ability to polymerize

Molecule: O=C1[O][Pt]2([NH][C@@H]3CCCC[C@H]3[NH]2)[O]C1=O [oxaliplatin]
- Inhibition of TrxR [1]: irreversibly inhibited TrxR
- Inhibition of GR [3]: not GR

Molecule: [Cl-].[Na+] [sodium chloride]
- effect on microtubule protein polymerization [4]: did not inhibit
- effect on microtubule protein polymerization ([4]; listed as NaCl): no effect

Molecule: N.N.[Cl][Pt+2][Cl] [transplatin]
- Inhibition of TrxR [1]: irreversibly inhibited TrxR
- Inhibition of GR [3]: not GR

Molecule: EGF: growth factor ligand of ErbB receptors
- ability to activate ErbB-2 (ErbB-2): −
- ability to activate ErbB-4 (ErbB-4): −
- ability to activate ErbB-3 (ErbB-3): −

Molecule: HB-EGF: growth factor ligand of ErbB receptors
- ability to activate ErbB-2 (ErbB-2): −
- ability to activate ErbB-4 (ErbB-4): +
- ability to activate ErbB-1 (ErbB-1): +
- ability to activate ErbB-3 (ErbB-3): −

Molecule: Insulin: positive control disulfide substrate of Trx [reference compound]
- NADPH Oxidation, Reaction A (bovine TrxR; insulin 86 μM): 0.3 ± .03 nmol/min/mL

Molecule: TGF-α: growth factor ligand of ErbB receptors
- ability to activate ErbB-2 (ErbB-2): −
- ability to activate ErbB-4 (ErbB-4): −
- ability to activate ErbB-3 (ErbB-3): −

Molecule: amphiregulin: growth factor ligand of ErbB receptors
- ability to activate ErbB-2 (ErbB-2): −
- ability to activate ErbB-4 (ErbB-4): −
- ability to activate ErbB-1 (ErbB-1): +
- ability to activate ErbB-3 (ErbB-3): −

Molecule: betacellulin: growth factor ligand of ErbB receptors
- ability to activate ErbB-2 (ErbB-2): −
- ability to activate ErbB-4 (ErbB-4): +
- ability to activate ErbB-1 (ErbB-1): +
- ability to activate ErbB-3 (ErbB-3): −

Molecule: epiregulin: growth factor ligand of ErbB receptors
- ability to activate ErbB-2 (ErbB-2): −
- ability to activate ErbB-4 (ErbB-4): +
- ability to activate ErbB-1 (ErbB-1): +
- ability to activate ErbB-3 (ErbB-3): −

Molecule: neuregulin 1
- ability to activate ErbB-2 (ErbB-2): −
- ability to activate ErbB-4 (ErbB-4): +
- ability to activate ErbB-1 (ErbB-1): −
- ability to activate ErbB-3 (ErbB-3): +

B1: epigen: growth factor ligand of ErbB receptors (protein, UniProt Q6UW88 23-154, looked up)
Epigen: AAVTVTPPITAQQGNWTVNKTEADNIEGPIALKFSHLCLEDHNSYCINGACAFHHELEKAICRCFTGYTGERCEHLTLTSYAVDSYEKYIAIGIGVGLLLSGFLVIFYCYIRKRCLKLKSPYNVCSGERRPL
- ability to activate ErbB-2 (ErbB-2): −
- ability to activate ErbB-4 (ErbB-4): −
- ability to activate ErbB-1 (ErbB-1): +
- ability to activate ErbB-3 (ErbB-3): −

Reference: US20170007561A1, “CONTEMPORANEOUS, HETEROGENEOUSLY-ORIENTED, MULTI-TARGETED THERAPEUTIC MODIFICATION AND/OR MODULATION OF DISEASE BY ADMINISTRATION OF SULFUR-CONTAINING, AMINO ACID-SPECIFIC SMALL MOLECULES” (BioNumerik Pharmaceuticals, Inc., priority 2014, published 2017)
